Earlier results as cited in PMC7511286 (European Journal of Drug Metabolism and Pharmacokinetics, 2020).

Assays:
CYP2C9 = conditions: human liver microsomes, recombinant enzymes; ref data on file; cited from earlier work
[1] = free acid, multiple-dose phase 1 study; cited from earlier work
[2] = system: human mitochondrial enzyme dihydroorotate dehydrogenase (DHODH); conditions: cited from earlier work
stimulated immune cells = conditions: cited from earlier work
[3] = hepatocytes across different species; ref data on file; cited from earlier work
CYP2C8 = conditions: human liver microsomes, recombinant enzymes; ref data on file; cited from earlier work

## COc1cccc(-c2ccc(NC(=O)C3=C(C(=O)O)CCC3)c(F)c2)c1 [vidofludimus]
CYP2C9
  contribution of CYP isoform to metabolism: smaller contributions
[1]
  daily dose at which cases of hematuria occurred: 70 mg
[2]
  inhibition of DHODH: potent and selective inhibitor
Stimulated immune cells
  inhibition of IL-17 and IFN-γ release: very potent inhibitor
[3]
  number of metabolites identified: eight
CYP2C8
  contribution of CYP isoform to metabolism: predominant hepatic CYP isoform
